Assay results reported in article PMC10004634 (PLOS ONE, 2023).
Like-named read-outs stand apart in the source and are kept apart here.

Tests used:
PIK3C2G = target: T1, PIK3C2G (Homo sapiens, UniProt O75747); experiment: biochemical; set-up: KINOMEscan scanMAX competition binding, DNA-tagged kinases, qPCR read-out, percent control at 300 nM
T1 sequence (O75747 1-1486): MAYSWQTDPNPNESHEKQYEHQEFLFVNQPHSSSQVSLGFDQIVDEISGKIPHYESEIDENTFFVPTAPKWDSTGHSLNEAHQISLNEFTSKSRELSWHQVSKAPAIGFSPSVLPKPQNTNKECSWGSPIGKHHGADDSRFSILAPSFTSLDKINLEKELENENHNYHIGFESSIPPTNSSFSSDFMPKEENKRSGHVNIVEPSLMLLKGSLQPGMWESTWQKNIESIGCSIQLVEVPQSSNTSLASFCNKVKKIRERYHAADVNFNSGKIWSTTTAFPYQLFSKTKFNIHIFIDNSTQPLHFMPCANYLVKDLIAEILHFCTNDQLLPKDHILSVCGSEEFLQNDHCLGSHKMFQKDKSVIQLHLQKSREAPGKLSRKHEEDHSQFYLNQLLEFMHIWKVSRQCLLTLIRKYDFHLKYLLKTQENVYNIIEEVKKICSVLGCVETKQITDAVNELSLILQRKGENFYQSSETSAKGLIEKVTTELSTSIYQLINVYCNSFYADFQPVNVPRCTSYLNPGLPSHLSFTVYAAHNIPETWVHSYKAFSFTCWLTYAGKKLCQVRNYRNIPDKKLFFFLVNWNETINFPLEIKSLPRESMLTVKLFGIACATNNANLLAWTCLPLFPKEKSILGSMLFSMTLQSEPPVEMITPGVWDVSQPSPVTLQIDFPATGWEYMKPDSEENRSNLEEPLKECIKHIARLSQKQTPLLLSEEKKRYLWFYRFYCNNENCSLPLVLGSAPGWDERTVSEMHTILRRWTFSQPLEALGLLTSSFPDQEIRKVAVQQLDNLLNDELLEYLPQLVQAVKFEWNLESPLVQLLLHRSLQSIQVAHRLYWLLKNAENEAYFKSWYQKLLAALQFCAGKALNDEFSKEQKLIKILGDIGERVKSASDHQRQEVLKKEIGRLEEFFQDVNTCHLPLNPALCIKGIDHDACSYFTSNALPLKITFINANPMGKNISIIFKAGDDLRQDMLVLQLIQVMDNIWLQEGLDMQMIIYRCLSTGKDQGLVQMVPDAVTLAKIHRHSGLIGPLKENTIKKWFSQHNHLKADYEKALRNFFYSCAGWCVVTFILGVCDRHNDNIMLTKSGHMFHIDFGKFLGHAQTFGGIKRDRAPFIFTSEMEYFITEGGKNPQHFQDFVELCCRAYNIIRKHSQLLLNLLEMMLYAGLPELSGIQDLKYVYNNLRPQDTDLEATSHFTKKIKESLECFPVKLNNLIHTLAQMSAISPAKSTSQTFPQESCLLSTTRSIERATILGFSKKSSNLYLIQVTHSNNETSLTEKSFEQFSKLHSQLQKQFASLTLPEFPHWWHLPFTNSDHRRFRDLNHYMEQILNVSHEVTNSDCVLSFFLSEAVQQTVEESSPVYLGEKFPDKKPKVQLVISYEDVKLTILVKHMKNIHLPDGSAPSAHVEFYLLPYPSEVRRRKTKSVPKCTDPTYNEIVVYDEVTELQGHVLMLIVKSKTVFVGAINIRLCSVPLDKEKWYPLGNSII

RIPK1 = target: T2, RIPK1 (Homo sapiens, UniProt Q13546); experiment: biochemical; set-up: KINOMEscan scanMAX competition binding, DNA-tagged kinases, qPCR read-out, percent control at 300 nM
T2 sequence (Q13546 1-671): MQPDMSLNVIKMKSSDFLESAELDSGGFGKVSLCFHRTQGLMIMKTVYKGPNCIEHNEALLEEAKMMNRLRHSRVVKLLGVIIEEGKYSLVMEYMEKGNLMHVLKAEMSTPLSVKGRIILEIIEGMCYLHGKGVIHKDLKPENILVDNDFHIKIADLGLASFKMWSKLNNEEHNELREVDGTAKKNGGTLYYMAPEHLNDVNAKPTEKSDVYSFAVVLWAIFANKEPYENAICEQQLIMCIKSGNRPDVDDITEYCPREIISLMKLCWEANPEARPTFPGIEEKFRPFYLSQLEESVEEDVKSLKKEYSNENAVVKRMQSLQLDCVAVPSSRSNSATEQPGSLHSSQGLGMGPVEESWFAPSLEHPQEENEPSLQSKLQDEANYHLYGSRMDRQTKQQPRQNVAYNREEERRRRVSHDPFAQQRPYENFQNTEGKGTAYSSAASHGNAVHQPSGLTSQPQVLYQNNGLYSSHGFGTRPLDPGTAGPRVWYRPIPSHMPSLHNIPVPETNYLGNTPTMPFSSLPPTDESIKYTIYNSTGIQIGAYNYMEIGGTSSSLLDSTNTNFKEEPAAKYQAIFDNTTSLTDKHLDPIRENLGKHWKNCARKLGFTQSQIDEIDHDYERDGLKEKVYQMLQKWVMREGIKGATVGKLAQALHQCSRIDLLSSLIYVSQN

[1] = read-out: Percent control / Acalabrutinib
[2] = read-out: Percent control / Ibrutinib
[3] = read-out: Percent control / Zanubrutinib

With `CC#CC(=O)N1CCC[C@H]1c1nc(-c2ccc(C(=O)Nc3ccccn3)cc2)c2c(N)nccn12` [Acalabrutinib] the remaining binding at 0.3 µM (PIK3C2G; [1]) was 74% and the remaining binding at 0.3 µM (RIPK1; [1]) was 93%.

With `C=CC(=O)N1CCC[C@@H](n2nc(-c3ccc(Oc4ccccc4)cc3)c3c(N)ncnc32)C1` [Ibrutinib] the remaining binding at 0.3 µM (PIK3C2G; [2]) was 97% and the remaining binding at 0.3 µM (RIPK1; [2]) was 93%.

For `CC#CC(=O)N1CC[C@@H](n2c(=O)n(-c3ccc(Oc4ccccc4)cc3)c3c(N)ncnc32)C1` [Tirabrutinib], the remaining binding at 0.3 µM (PIK3C2G; read-out: Percent control / Tirabrutinib) was 98%.

`C=CC(=O)N1CCC([C@@H]2CCNc3c(C(N)=O)c(-c4ccc(Oc5ccccc5)cc4)nn32)CC1` [Zanubrutinib] gave a remaining binding at 0.3 µM (PIK3C2G; [3]) of 74% and a remaining binding at 0.3 µM (RIPK1; [3]) of 97%.
